Results as given in the NIST ThermoML archive (doi:10.1021/je800251v).

Conditions: Liquid

CCCCC(=O)OCC [ethyl pentanoate]
Conditions	mass density [kg/m3]
298.15 K, 100 kPa	870.7
298.15 K, 1000 kPa	871.5
298.15 K, 2000 kPa	872.4
298.15 K, 2780 kPa	873
298.15 K, 3000 kPa	873.2
298.15 K, 5000 kPa	875.1
298.15 K, 10000 kPa	879.4
298.15 K, 15000 kPa	883.4
298.15 K, 20000 kPa	887.3
298.15 K, 25000 kPa	891
298.15 K, 30000 kPa	894.6
298.15 K, 35000 kPa	898.1
303.15 K, 100 kPa	865.5
303.15 K, 1000 kPa	866.4
303.15 K, 2000 kPa	867.4
303.15 K, 2780 kPa	868.1
303.15 K, 3000 kPa	868.3
303.15 K, 5000 kPa	870.1
303.15 K, 10000 kPa	874.5
303.15 K, 15000 kPa	878.7
303.15 K, 20000 kPa	882.6
303.15 K, 25000 kPa	886.5
303.15 K, 30000 kPa	890.2
303.15 K, 35000 kPa	893.8
308.15 K, 100 kPa	860.3
308.15 K, 1000 kPa	861.2
308.15 K, 2000 kPa	862.1
308.15 K, 2780 kPa	862.9
308.15 K, 3000 kPa	863.1
308.15 K, 5000 kPa	865
308.15 K, 10000 kPa	869.5
308.15 K, 15000 kPa	873.8
308.15 K, 20000 kPa	877.8
308.15 K, 25000 kPa	881.8
308.15 K, 30000 kPa	885.6
308.15 K, 35000 kPa	889.2
313.15 K, 100 kPa	855
313.15 K, 1000 kPa	855.9
313.15 K, 2000 kPa	856.9
313.15 K, 2780 kPa	857.7
313.15 K, 3000 kPa	857.9
313.15 K, 5000 kPa	859.9
313.15 K, 10000 kPa	864.5
313.15 K, 15000 kPa	868.9
313.15 K, 20000 kPa	873
313.15 K, 25000 kPa	877
313.15 K, 30000 kPa	880.9
313.15 K, 35000 kPa	884.6
318.15 K, 100 kPa	849.8
318.15 K, 1000 kPa	850.6
318.15 K, 2000 kPa	851.7
318.15 K, 2780 kPa	852.4
318.15 K, 3000 kPa	852.7
318.15 K, 5000 kPa	854.6
318.15 K, 10000 kPa	859.4
318.15 K, 15000 kPa	863.9
318.15 K, 20000 kPa	868.2
318.15 K, 25000 kPa	872.3
318.15 K, 30000 kPa	876.3
318.15 K, 35000 kPa	880.1
323.15 K, 100 kPa	844.4
323.15 K, 1000 kPa	845.3
323.15 K, 2000 kPa	846.4
323.15 K, 2780 kPa	847.2
323.15 K, 3000 kPa	847.4
323.15 K, 5000 kPa	849.4
323.15 K, 10000 kPa	854.3
323.15 K, 15000 kPa	859
323.15 K, 20000 kPa	863.4
323.15 K, 25000 kPa	867.6
323.15 K, 30000 kPa	871.7
323.15 K, 35000 kPa	875.5
328.15 K, 100 kPa	839.1
328.15 K, 1000 kPa	840
328.15 K, 2000 kPa	841.1
328.15 K, 2780 kPa	842
328.15 K, 3000 kPa	842.3
328.15 K, 5000 kPa	844.4
328.15 K, 10000 kPa	849.4
328.15 K, 15000 kPa	854.2
328.15 K, 20000 kPa	858.7
328.15 K, 25000 kPa	863
328.15 K, 30000 kPa	867.1
328.15 K, 35000 kPa	871.1
333.15 K, 100 kPa	833.7
333.15 K, 1000 kPa	834.7
333.15 K, 2000 kPa	836
333.15 K, 2780 kPa	836.9
333.15 K, 3000 kPa	837.1
333.15 K, 5000 kPa	839.3
333.15 K, 10000 kPa	844.5
333.15 K, 15000 kPa	849.5
333.15 K, 20000 kPa	854.1
333.15 K, 25000 kPa	858.6
333.15 K, 30000 kPa	862.9
333.15 K, 35000 kPa	867
338.15 K, 100 kPa	828.4
338.15 K, 1000 kPa	829.5
338.15 K, 2000 kPa	830.7
338.15 K, 2780 kPa	831.5
338.15 K, 3000 kPa	831.8
338.15 K, 5000 kPa	834
338.15 K, 10000 kPa	839.4
338.15 K, 15000 kPa	844.5
338.15 K, 20000 kPa	849.3
338.15 K, 25000 kPa	853.9
338.15 K, 30000 kPa	858.2
338.15 K, 35000 kPa	862.4
343.15 K, 100 kPa	823
343.15 K, 1000 kPa	824.1
343.15 K, 2000 kPa	825.3
343.15 K, 2780 kPa	826.2
343.15 K, 3000 kPa	826.5
343.15 K, 5000 kPa	828.8
343.15 K, 10000 kPa	834.4
343.15 K, 15000 kPa	839.6
343.15 K, 20000 kPa	844.5
343.15 K, 25000 kPa	849.2
343.15 K, 30000 kPa	853.7
343.15 K, 35000 kPa	858
348.15 K, 100 kPa	817.7
348.15 K, 1000 kPa	818.7
348.15 K, 2000 kPa	820
348.15 K, 2780 kPa	821
348.15 K, 3000 kPa	821.3
348.15 K, 5000 kPa	823.7
348.15 K, 10000 kPa	829.4
348.15 K, 15000 kPa	834.8
348.15 K, 20000 kPa	839.9
348.15 K, 25000 kPa	844.7
348.15 K, 30000 kPa	849.3
348.15 K, 35000 kPa	853.6
353.15 K, 100 kPa	812.2
353.15 K, 1000 kPa	813.3
353.15 K, 2000 kPa	814.6
353.15 K, 2780 kPa	815.6
353.15 K, 3000 kPa	815.9
353.15 K, 5000 kPa	818.4
353.15 K, 10000 kPa	824.3
353.15 K, 15000 kPa	829.9
353.15 K, 20000 kPa	835.1
353.15 K, 25000 kPa	840
353.15 K, 30000 kPa	844.7
353.15 K, 35000 kPa	849.1
363.15 K, 100 kPa	801.2
363.15 K, 1000 kPa	802.5
363.15 K, 2000 kPa	803.9
363.15 K, 2780 kPa	805
363.15 K, 3000 kPa	805.5
363.15 K, 5000 kPa	808.1
363.15 K, 10000 kPa	814.6
363.15 K, 15000 kPa	820.5
363.15 K, 20000 kPa	826
363.15 K, 25000 kPa	831.2
363.15 K, 30000 kPa	836
363.15 K, 35000 kPa	840.8
373.15 K, 100 kPa	790.7
373.15 K, 1000 kPa	792
373.15 K, 2000 kPa	793.5
373.15 K, 2780 kPa	794.7
373.15 K, 3000 kPa	795
373.15 K, 5000 kPa	797.9
373.15 K, 10000 kPa	804.8
373.15 K, 15000 kPa	810.9
373.15 K, 20000 kPa	816.7
373.15 K, 25000 kPa	822.2
373.15 K, 30000 kPa	827.3
373.15 K, 35000 kPa	832.3
383.15 K, 100 kPa	779.9
383.15 K, 1000 kPa	781.3
383.15 K, 2000 kPa	783
383.15 K, 2780 kPa	784.2
383.15 K, 3000 kPa	784.5
383.15 K, 5000 kPa	787.6
383.15 K, 10000 kPa	795
383.15 K, 15000 kPa	801.5
383.15 K, 20000 kPa	807.6
383.15 K, 25000 kPa	813.4
383.15 K, 30000 kPa	818.9
383.15 K, 35000 kPa	824
393.15 K, 100 kPa	769
393.15 K, 1000 kPa	770.5
393.15 K, 2000 kPa	772.3
393.15 K, 2780 kPa	773.6
393.15 K, 3000 kPa	774.1
393.15 K, 5000 kPa	777.4
393.15 K, 10000 kPa	785.1
393.15 K, 15000 kPa	791.6
393.15 K, 20000 kPa	797.7
393.15 K, 25000 kPa	803.5
393.15 K, 30000 kPa	809
393.15 K, 35000 kPa	814
